These results are taken from BindingDB's records for doi:10.1111/cbdd.12588 (Tehran University of Medical Sciences, 2015).

The IC50 is the concentration that inhibits the measured activity by half.

Assay [1] concerns the target Carboxylic ester hydrolase (Equus caballus, UniProt Q9N1N9). Nature of the assay: Cholinesterase Inhibition Assay. Particulars: pH 8. The protocol:
(§1) The target compounds were dissolved in a mixture of 1 mL DMSO and 9 mL methanol and diluted in 0.1 M KH2PO4/K2HPO4 buffer (pH 8.0) to obtain final concentrations.For each compound, five different concentrations were tested to obtain the range of 20-80% enzyme inhibition. The assay medium was composed of 3 mL of phosphatebuffer (0.1 M, pH 8.0), 100 µL of DTNB (0.01 M), 100 µL of enzyme solution (AChE or BuChE, 2.5 unit/mL), and 50 µL of test compound.

The target of assay [2] is Acetylcholinesterase (Electrophorus electricus, UniProt O42275). Nature of the assay: Cholinesterase Inhibition Assay. Particulars: pH 8. The protocol: as §1
Chain of Acetylcholinesterase (O42275 whole entry): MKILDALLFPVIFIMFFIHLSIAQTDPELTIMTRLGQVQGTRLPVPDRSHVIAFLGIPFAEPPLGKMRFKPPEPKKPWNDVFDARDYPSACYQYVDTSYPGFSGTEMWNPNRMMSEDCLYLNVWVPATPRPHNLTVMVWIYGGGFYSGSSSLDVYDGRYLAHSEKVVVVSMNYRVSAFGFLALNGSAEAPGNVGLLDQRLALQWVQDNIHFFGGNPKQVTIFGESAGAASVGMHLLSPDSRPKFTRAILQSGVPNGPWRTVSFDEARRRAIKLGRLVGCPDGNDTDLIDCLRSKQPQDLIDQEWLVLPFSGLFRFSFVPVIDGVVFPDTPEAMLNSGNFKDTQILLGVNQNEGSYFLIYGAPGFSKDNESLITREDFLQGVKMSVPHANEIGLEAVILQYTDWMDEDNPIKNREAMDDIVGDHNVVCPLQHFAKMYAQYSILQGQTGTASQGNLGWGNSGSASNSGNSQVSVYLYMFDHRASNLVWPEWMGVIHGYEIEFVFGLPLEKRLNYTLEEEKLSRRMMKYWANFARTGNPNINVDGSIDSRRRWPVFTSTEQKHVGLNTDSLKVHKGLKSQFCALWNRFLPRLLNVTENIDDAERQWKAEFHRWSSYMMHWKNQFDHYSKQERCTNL

Chain of Carboxylic ester hydrolase (Q9N1N9 whole entry): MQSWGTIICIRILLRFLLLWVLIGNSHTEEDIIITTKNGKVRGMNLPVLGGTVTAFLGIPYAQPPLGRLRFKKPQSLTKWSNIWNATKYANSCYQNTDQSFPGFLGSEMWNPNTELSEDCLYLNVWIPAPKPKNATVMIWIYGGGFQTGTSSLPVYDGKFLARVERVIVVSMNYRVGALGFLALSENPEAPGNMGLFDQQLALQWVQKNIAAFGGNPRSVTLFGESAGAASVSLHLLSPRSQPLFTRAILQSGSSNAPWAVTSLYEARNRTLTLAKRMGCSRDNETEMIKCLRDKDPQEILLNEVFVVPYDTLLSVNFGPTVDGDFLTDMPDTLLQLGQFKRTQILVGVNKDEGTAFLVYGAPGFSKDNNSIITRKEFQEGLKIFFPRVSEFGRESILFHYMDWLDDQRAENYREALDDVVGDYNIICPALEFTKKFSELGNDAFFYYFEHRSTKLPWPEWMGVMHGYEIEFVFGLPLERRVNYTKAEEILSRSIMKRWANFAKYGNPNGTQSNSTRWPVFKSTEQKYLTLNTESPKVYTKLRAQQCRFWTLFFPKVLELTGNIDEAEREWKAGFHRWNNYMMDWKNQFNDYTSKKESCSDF

`O=C(COc1cc(=O)oc2ccccc12)OCc1cn(Cc2ccccc2Br)nn1` [(1-(2-Bromobenzyl)-1H-1,2,3-triazol-4-yl)methyl 2-(2-oxo-2H-chromen-4-yloxy)acetate (8a)]: the IC50 came out at 43 µM in assay [1] and 2.14 µM in assay [2].

For the compound `O=C(COc1cc(=O)oc2ccccc12)OCc1cn(Cc2ccccc2Cl)nn1` [(1-(2-Chlorobenzyl)-1H-1,2,3-triazol-4-yl)methyl 2-(2-oxo-2H-chromen-4-yloxy)acetate (8k)], the results for the IC50 in assay [1] and in assay [2] were > 50 µM and 0.18 µM, respectively.

As to `O=C(COc1cc(=O)oc2ccccc12)OCc1cn(Cc2ccccc2F)nn1` [(1-(2-Fluorobenzyl)-1H-1,2,3-triazol-4-yl)methyl 2-(2-oxo-2H-chromen-4-yloxy)acetate (8h)], the IC50 in assay [1] was > 50 µM; in assay [2], 5.7 µM.

`Cc1ccccc1Cn1cc(COC(=O)COc2cc(=O)oc3ccccc23)nn1` [(1-(2-Methylbenzyl)-1H-1,2,3-triazol-4-yl)methyl 2-(2-oxo-2H-chromen-4-yloxy)acetate (8f)]: the results for the 50% inhibitory concentration (IC50) in assay [1] and in assay [2] were > 50 µM and 1.79 µM, respectively.

Take `O=C(COc1cc(=O)oc2ccccc12)OCc1cn(Cc2ccccc2[N+](=O)[O-])nn1` [(1-(2-Nitrobenzyl)-1H-1,2,3-triazol-4-yl)methyl 2-(2-oxo-2H-chromen-4-yloxy)acetate (8n)]: the IC50 was > 50 µM in assay [1] and 0.53 µM in assay [2].

`O=C(COc1cc(=O)oc2ccccc12)OCc1cn(Cc2cccc(Br)c2)nn1` [(1-(3-Bromobenzyl)-1H-1,2,3-triazol-4-yl)methyl 2-(2-oxo-2H-chromen-4-yloxy)acetate (8b)]: the 50% inhibitory concentration (IC50) in assay [1] was > 50 µM; in assay [2] it was 1.79 µM.

On to `O=C(COc1cc(=O)oc2ccccc12)OCc1cn(Cc2cccc(Cl)c2)nn1` [(1-(3-Chlorobenzyl)-1H-1,2,3-triazol-4-yl)methyl 2-((2-oxo-2H-chromen-4-yl)oxy)acetate (8l)], for which the IC50 was > 50 µM in assay [1] and 0.34 µM in assay [2].

`O=C(COc1cc(=O)oc2ccccc12)OCc1cn(Cc2cccc(F)c2)nn1` [(1-(3-Fluorobenzyl)-1H-1,2,3-triazol-4-yl)methyl 2-(2-oxo-2H-chromen-4-yloxy)acetate (8i)]: the figures for the IC50 in assay [1] and in assay [2] were > 50 µM and 1.64 µM, respectively.

For the compound `COc1cccc(Cn2cc(COC(=O)COc3cc(=O)oc4ccccc34)nn2)c1` [(1-(3-Methoxybenzyl)-1H-1,2,3-triazol-4-yl)methyl 2-(2-oxo-2H-chromen-4-yloxy)acetate (8d)], the IC50 in assay [1] was > 50 µM; in assay [2], 7 µM.

For the compound `O=C(COc1cc(=O)oc2ccccc12)OCc1cn(Cc2ccc(Br)cc2)nn1` [(1-(4-Bromobenzyl)-1H-1,2,3-triazol-4-yl)methyl 2-(2-oxo-2H-chromen-4-yloxy)acetate (8c)], the values for the IC50 in assay [1] and in assay [2] were > 50 µM and 87.9 µM, respectively.

In the case of `O=C(COc1cc(=O)oc2ccccc12)OCc1cn(Cc2ccc(Cl)cc2)nn1` [(1-(4-Chlorobenzyl)-1H-1,2,3-triazol-4-yl)methyl 2-(2-oxo-2H-chromen-4-yloxy)acetate (8m)], the concentration for half-maximal inhibition (IC50) in assay [1] was > 50 µM; in assay [2], 13 µM.

Take `O=C(COc1cc(=O)oc2ccccc12)OCc1cn(Cc2ccc(F)cc2)nn1` [(1-(4-Fluorobenzyl)-1H-1,2,3-triazol-4-yl)methyl 2-(2-oxo-2H-chromen-4-yloxy)acetate (8j)]: the half-maximal inhibitory concentration (IC50) is > 50 µM in assay [1] and 2.54 µM in assay [2].

On to `COc1ccc(Cn2cc(COC(=O)COc3cc(=O)oc4ccccc34)nn2)cc1` [(1-(4-Methoxybenzyl)-1H-1,2,3-triazol-4-yl)methyl 2-(2-oxo-2H-chromen-4-yloxy)acetate (8e)], for which the 50% inhibitory concentration (IC50) was > 50 µM in assay [1] and 104 µM in assay [2].

With `Cc1ccc(Cn2cc(COC(=O)COc3cc(=O)oc4ccccc34)nn2)cc1` [(1-(4-Methylbenzyl)-1H-1,2,3-triazol-4-yl)methyl 2-(2-oxo-2H-chromen-4-yloxy)acetate (8g)], the figures for the concentration for half-maximal inhibition (IC50) in assay [1] and in assay [2] were > 50 µM and 90 µM, respectively.

As to `O=C(COc1cc(=O)oc2ccccc12)OCc1cn(Cc2ccc([N+](=O)[O-])cc2)nn1` [(1-(4-Nitrobenzyl)-1H-1,2,3-triazol-4-yl)methyl 2-(2-oxo-2H-chromen-4-yloxy)acetate (8o)], the IC50 was > 50 µM in assay [1] and 137 µM in assay [2].

As to `O=C(COc1cc(=O)oc2ccccc12)OCc1cn(Cc2ccccc2)nn1` [(1-Benzyl-1H-1,2,3-triazol-4-yl)methyl 2-((2-oxo-2H-chromen-4-yl)oxy)acetate (8p)], the results for the 50% inhibitory concentration (IC50) in assay [1] and in assay [2] were > 50 µM and 15.8 µM, respectively.
